“Also recorded” adds a separate entry of the source. Read-outs that look alike come from different tables or passages of the source.
What was measured:
P. falciparum Grp94 = P. falciparum Grp94 (Plasmodium falciparum, UniProt Q8I0V4); assay: biochemical; format: binding
Method: (§1) Full-length human recombinant HSP90α was purchased (Cayman Chemicals, MI), while the malaria recombinant parasite proteins were generated according to the following protocol. […] Growth at 37 °C continued until the OD600 reached ~1.0, whereupon the temperature was lowered to 18 °C and protein expression was induced by the addition of 1 mM isopropyl β-D-thiogalactopyranoside (IPTG). Overnight post-induction cells were collected by centrifugation and resuspended in binding buffer [50 mM Hepes pH 7.5, 500 mM NaCl, 1 mM benzamidine, and 1 mM phenylmethanesulfonyl fluoride (PMSF)]. The cells were lysed by adding chemical lysis buffer (2% CHAPS, 0.1 mg/mL lysozyme and 0.5 U/mL benzonase), the lysate was clarified by centrifugation. The supernatant was loaded on to a nickel-nitrilotriacetic acid column pre-equilibrated with binding buffer (50 mM Hepes pH 7.5, 500 mM NaCl). Following a wash step with binding buffer containing 5 mM imidazole, the bound protein was eluted with elution buffer (50 mM Hepes pH 7.5, 500 mM NaCl, 250 mM imidazole). The eluate was then loaded on to a 16/60 Superdex 200 size exclusion column pre-equilibrated with 50 mM Hepes pH 7.5 and 500 mM NaCl. Target protein-containing fractions were pooled and concentrated using centrifugal filter units (Amicon). The final protein products and samples for different steps in the purification procedures were evaluated in SDS-Page gels.
(§2) SPR measurements were performed on Biacore T200 instrument (GE Healthcare) at 25 °C. Purified P. falciparum Hsp90 and PfGRP94 N-terminal domain, and full-length human Hsp90α were immobilized on a CM5 sensorchip using NHS/EDC coupling following the manufacturer protocol to a level of <10,000 RUs, a reference surfaces without immobilized proteins served as a control for nonspecific binding and refractive index changes. Seven different concentrations of the ligands between 0.4 nM and 1 mM, were injected in triplicate over the sensor chip at 30 μL/min in random order. The running buffer was 10 mM HEPES, pH 7.4, 150 mM NaCl, 0.005% P20, 1% DMSO and 2 mM MgCl2. Buffer alone injections were used as blanks. The sensor surface was regenerated between injections with a short injection of a buffer 10 mM HEPES, pH 7.4, 150 mM NaCl, 0.005% P20 and 3 mM EDTA. The Biacore responses recorded during the 30 s of the injection were used to estimate the association constant (k on) and the 300 s after the injection were used to estimate the dissociation constant (k off). All kinetic constants were estimated using double subtracted sensorgrams using BiaEvaluation Software (GE Healthcare), the kinetic constants were used to calculate the dissociation constant (K d).

P. falciparum Hsp90 = P. falciparum Hsp90 (Plasmodium falciparum, UniProt Q8IC05); assay: biochemical; format: binding
P. falciparum Hsp90, sequence (Q8IC05 entry or part of it): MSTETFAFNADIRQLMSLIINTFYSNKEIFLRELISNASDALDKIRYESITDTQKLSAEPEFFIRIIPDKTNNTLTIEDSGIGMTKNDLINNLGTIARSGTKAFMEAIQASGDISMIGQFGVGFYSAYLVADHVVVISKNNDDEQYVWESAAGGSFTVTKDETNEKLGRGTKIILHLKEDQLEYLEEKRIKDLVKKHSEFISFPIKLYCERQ
Method: as §1, §2

[1] = system: P. falciparum chloroquine resistant W2; assay: Growth inhibition assay (SYBR Green I), W2; settings: W2, 72 h
Method: (§5) A 50% suspension of non-infected O positive erythrocytes was added every 2 days to adjust haematocrit to 5%. Parasite cultures were maintained at 37 °C in 5% O2 and 5% CO2 atmosphere with daily changes of culture media.
(§6) A synchronized P. falciparum culture, with over 80% ring forms, was used in the growth inhibition assay. […] A 190 μL aliquot of parasite culture was dispensed per well to microplates that were pre-dispensed with the compounds at various dilutions. […] Dilutions of Hsp90 inhibitors and DHA were prepared in water with a final concentration of DMSO below 0.05% (v/v).
(§7) The microplates were incubated at 37 °C in a controlled atmosphere (5% O2, 5% CO2 Nitrogen balanced) for 72 h. After incubation, the plates were subject to a freeze–thaw cycle (−80 °C) and the parasite growth was quantified by the SYBR Green I method as previously described [33]. Briefly, 100 µL of homogenized parasite culture was transferred into 96-well black plates. […] The plates were incubated at room temperature in darkness for 1 h.
(§8) Growth inhibition experiments were conducted at least three times per compound (biological replicates, n ≥ 3). The IC50 differences for each inhibitor between the two P. falciparum strains were compared with a t test.

P. falciparum W2 [2] = assay: Parasite stage specific effect, W2; format: cell-based, Plasmodium falciparum; settings: W2, 24 h; 17-DMAG 1.2 µM, NVP-AUY922 0.72 µM
Method: (§3) Synchronized P. falciparum cultures were used to determine the susceptibility of different parasite stages to Hsp90 inhibitors. Three synchronized cultures per strain, with a majority of the parasites in the ring (0–26 h post red blood cell infection), trophozoite (26–38 h) or schizont (38–48 h) stages respectively (Fig. 3). […] The cultures were exposed to one concentration of the Hsp90 inhibitor for 24 h. […] For each three exposed the cultures and the control for both strains 3D7 and W2, the parasitaemia and the developmental stage of the parasites were recorded. Before and after drug exposure, Giemsa-stained blood smears were scored by microscopy examination counting 100 infected erythrocytes per culture, and the proportion of each developmental stage was calculated.

[3] = parameters: method as in PMID 18020435; settings: mice, 50 mg/kg; read-out: Cmax in plasma; cited from earlier work
[4] = system: P. falciparum chloroquine sensitive 3D7; assay: Growth inhibition assay (SYBR Green I), 3D7; settings: 3D7, 72 h
Method: as §5, §6, §7, §8

P. falciparum W2 [5] = assay: Recrudescence assay, W2; format: cell-based, Plasmodium falciparum
Method: (§4) The assay is a modification of the previously reported bulk recrudescence assay. […] […] After drug exposure, the medium containing the drug was removed and the cultures were washed twice with compound-free media, and resuspended in RPMI to adjust haematocrit to 5%. The medium was changed every day and red blood cells were added every 2 days to adjust the haematocrit. The cultures were monitored daily until they reached 10% parasitaemia, which represented the end point of the experiment. Culture parasitaemia was determined by scoring >2000 erythrocytes in Giemsa-stained thin blood films as parasitized or not. The median number of days to reach this level of parasitaemia was reported for all the experiments. All experiments were conducted in triplicate; each replica was conducted on different days. The differences in the recovery times between control cultures to those exposed to Hsp90 inhibitors were analysed using the non-parametric statistic Kruskal–Wallis test. If the overall test was significant then Dunn’s multiple comparison tests were used to identify significant differences among pair comparisons. The same statistical analysis was applied when comparing P. falciparum cultures exposed to DHA alone versus DHA in combination with Hsp90 inhibitors. […] The statistical analyses were performed with the software Prism v6 (GraphPad Software, San Diego, CA).

P. falciparum 3D7 [6] = assay: Parasite stage specific effect, 3D7; format: cell-based, Plasmodium falciparum; settings: 3D7, 24 h; 17-DMAG 1.2 µM, NVP-AUY922 0.72 µM
Method: as §3

[7] = system: Primary normal human lung fibroblasts (NHLFs); assay: Drug cytotoxicity assay (MTT); settings: 24 h
Method: Primary normal human lung fibroblasts (NHLFs) were seeded on 24-well plates and cultured in FGM-2 media (LONZA, Basel, Switzerland) until they reached 80% confluency. […] Briefly, 50 µL of MTT dye was added into the media and the cells were returned to the incubator for 3 h. Then 500 µL of solubilization solution was added to dissolve the MTT formazan crystals. […] The drug cytotoxicity assay was performed in triplicate.

P. falciparum 3D7 [8] = assay: Recrudescence assay, 3D7; format: cell-based, Plasmodium falciparum
Method: as §4

human Hsp90α = target: T1, human Hsp90α (Homo sapiens, UniProt P07900); assay: Biacore SPR analysis, full-length human Hsp90α; format: binding; settings: for kon: read-out: ka
T1 construct: Full-length human recombinant HSP90α was purchased; purchased Cayman Chemicals, MI
Method: as §1
as §2, with “Seven different concentrations of the ligands between 0.4 nM and 1 mM, were injected in triplicate over the sensor chip at 30 μL/min in random order.” left out

[9] = Plasmodium falciparum, synchronized ring culture
[10] = SPR, 25 °C, calculated from kinetic constants, read-out: Kd
[11] = Kd, SPR, 25 °C, calculated from kinetic constants

P. falciparum Grp94, sequence (Q8I0V4 entry or part of it): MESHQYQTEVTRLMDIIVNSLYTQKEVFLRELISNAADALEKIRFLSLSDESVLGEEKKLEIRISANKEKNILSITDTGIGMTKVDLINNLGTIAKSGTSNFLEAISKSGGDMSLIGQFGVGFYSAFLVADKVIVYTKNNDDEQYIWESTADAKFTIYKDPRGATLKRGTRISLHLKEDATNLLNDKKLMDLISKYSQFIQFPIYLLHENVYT

Row | Compound | ka (P. falciparum Grp94; SPR, 25 °C) | kd (P. falciparum Grp94; SPR, 25 °C) | ka (P. falciparum Hsp90; SPR, 25 °C) | kd (P. falciparum Hsp90; SPR, 25 °C) | IC90 ([1]; Plasmodium falciparum) | IC50 [1, 9] | IC90 ([4]; Plasmodium falciparum) | IC50 [4, 9] | Kd (P. falciparum Grp94) | also measured
1 | CC1(C)CC(=O)c2c(C(F)(F)F)nn(-c3ccc(C(N)=O)c(N[C@H]4CC[C@H](O)CC4)c3)c2C1 [SNX-2112] | 4720 M⁻¹ s⁻¹ | 0.0006 s⁻¹ | 20,300 1/Ms | 0.003 s⁻¹ | > 10 µM | 1.7 µM | – | – | – | –
2 | CCNC(=O)c1noc(-c2cc(C(C)C)c(O)cc2O)c1-c1ccc(CN2CCOCC2)cc1 [NVP-AUY922] | – | – | – | – | 0.46 µM | ~0.075 µM | 0.646 µM | ~0.075 µM | 0.009 µM | effect against all parasite stages (ring, trophozoite, schizont) (P. falciparum W2 [2]): effective against all parasite stages; Cmax [3]: 35 µM; IC50 ([4]; synchronized ring culture): 0.0755 µM; ka (P. falciparum Grp94): 438,000 1/Ms; kd (P. falciparum Grp94): 0.004 s⁻¹; ka (P. falciparum Hsp90): 107,000 1/Ms; kd (P. falciparum Hsp90): 0.001 s⁻¹; Kd (P. falciparum Hsp90; Kd): 0.013 µM; Kd (P. falciparum Hsp90; Kd against the parasite chaperone): 0.0132 µM; IC50 ([1]; synchronized ring culture): 0.0754 µM; recovery time in combination with DHA vs DHA alone (P. falciparum W2 [5]; W2, 48 h, two concentrations plus DHA 100 nM): only significant in the case of P. falciparum W2; delay of culture recovery vs untreated control (cytocidal activity) (P. falciparum W2 [5]; W2, 48 h exposure, 17-AAG 1.5-6 µM, 17-DMAG 0.3-1.2 µM, NVP-AUY922 0.18-0.72 µM): (0.36 and 0.72 µM) significantly delayed the parasite recovery; also recorded: strong cytotoxic activities; effect against all parasite stages (ring, trophozoite, schizont) (P. falciparum 3D7 [6]): effective against all parasite stages; IC50 ([7]; Homo sapiens, Fibroblast, read-out: IC50 against human cells): > 10 µM; growth inhibition for the human cells ([7]; NHLF, 0.5 to 10 µM): ≤ 25%; recovery time in combination with DHA vs DHA alone (P. falciparum 3D7 [8]; 3D7, 48 h, two concentrations plus DHA 100 nM): increase in the time required to reach 10% parasitaemia; delay of culture recovery vs untreated control (cytocidal activity) (P. falciparum 3D7 [8]; 3D7, 48 h exposure, 17-AAG 1.5-6 µM, 17-DMAG 0.3-1.2 µM, NVP-AUY922 0.18-0.72 µM): (0.36 and 0.72 µM) significantly delayed the parasite recovery; also recorded: strong cytotoxic activities
3 | C[C@H]1[C@@H](O)O[C@@H]2O[C@@]3(C)CC[C@H]4[C@H](C)CC[C@@H]1[C@@]24OO3 [DHA, dihydroartemisinin] | – | – | – | – | 0.0018 µM | 0.0005 µM | 0.0052 µM | 0.0012 µM | – | days to recover to 10% parasitaemia (median) (P. falciparum W2 [5]; W2, 100 nM for 48 h): 13 days; days to recover to 10% parasitaemia (median) (P. falciparum 3D7 [8]; 3D7, 100 nM for 48 h): 12 days
4 | Nc1ncnc2c1ncn2[C@@H]1O[C@H](COP(=O)(O)OP(=O)(O)O)[C@@H](O)[C@H]1O [ADP] | 1360 M⁻¹ s⁻¹ | 0.003 s⁻¹ | 107 M⁻¹ s⁻¹ | 0.002 s⁻¹ | – | – | – | – | – | Kd (P. falciparum Grp94; [10]): 2.21 µM; Kd (P. falciparum Hsp90; [10]): 20.6 µM; ka (human Hsp90α; SPR, 25 °C): 109 M⁻¹ s⁻¹; kd (human Hsp90α; SPR, 25 °C): 0.006 s⁻¹; Kd (human Hsp90α; SPR, 25 °C, calculated from kinetic constants): 63.8 µM
5 | COC1=C2C[C@@H](C)C[C@H](OC)[C@H](O)[C@@H](C)/C=C(\C)[C@H](OC(N)=O)[C@@H](OC)/C=C\C=C(/C)C(=O)NC(=CC1=O)C2=O [Geldanamycin, geldanamycin] | – | – | – | – | 2.63 µM | – | 1.7 µM | – | – | IC50 ([4]; Plasmodium falciparum): 0.215 µM; IC50 ([1]; Plasmodium falciparum): 0.2 µM
6 | CC(C)c1cc(C(=O)N2Cc3ccc(CN4CCN(C)CC4)cc3C2)c(O)cc1O [AT13387, (2,4-dihydroxy-5-isopropylphenyl)-[5-(4-methylpiperazin-1-ylmethyl)-1,3-dihydroisoindol-2-yl]methanone] | 216 M⁻¹ s⁻¹ | 0.643 s⁻¹ | 212 M⁻¹ s⁻¹ | 0.009 s⁻¹ | 5.37 µM | 0.531 µM | 4.57 µM | 0.665 µM | 2980 µM | Kd (P. falciparum Hsp90; [11]): 46.5 µM; kd (human Hsp90α; SPR, 25 °C): 0.348 s⁻¹; kon (human Hsp90α): 570 M⁻¹ s⁻¹
7 | CC(C)c1cc(-c2n[nH]c(=O)n2-c2ccc3c(ccn3C)c2)c(O)cc1O [STA-9090] | 1.7e+06 M⁻¹ s⁻¹ | 0.003 s⁻¹ | 1.27 M⁻¹ s⁻¹ | 1.5e-07 s⁻¹ | > 10 µM | 1.29 µM | 4.11 µM | 1.25 µM | 0.001 µM | Kd (P. falciparum Hsp90; Kd): 0.121 µM
8 | CC(C)NCCCn1c(Sc2cc3c(cc2I)OCO3)nc2c(N)ncnc21 [PUH71] | – | – | – | – | > 10 µM | – | – | – | – | IC50 ([4]; Plasmodium falciparum): 3.92 µM; ka (P. falciparum Hsp90): 356,000 1/Ms; kd (P. falciparum Hsp90): 0.005 s⁻¹; IC50 ([1]; Plasmodium falciparum): 4.42 µM; kd (human Hsp90α): 0.007 s⁻¹
9 | CCN(CC)CCCC(C)Nc1ccnc2cc(Cl)ccc12 (stereo not shown) [CQ, Chloroquine] | – | – | – | – | 0.39 µM | – | 0.0672 µM | – | – | IC50 ([4]; Plasmodium falciparum): 0.0379 µM; IC50 ([1]; Plasmodium falciparum): 0.129 µM
10 | CC1(C)CC(=O)c2c(C(F)(F)F)nn(-c3ccc(C(N)=O)c(N[C@H]4CC[C@H](OC(=O)CN)CC4)c3)c2C1 [SNX-5422] | – | – | – | – | 6.65 µM | 2.01 µM | 4.32 µM | 2.14 µM | – | –
11 | CC(C)NCCCn1c(Sc2cc(Cl)cc(Cl)c2)nc2c(N)ncnc21 [PUWS13] | 149 M⁻¹ s⁻¹ | 0.843 s⁻¹ | 598,000 1/Ms | 0.041 s⁻¹ | 9.06 µM | 3.88 µM | – | 7 µM | 5600 µM | Kd (P. falciparum Hsp90; [11]): 0.069 µM; kd (human Hsp90α; SPR, 25 °C): 0.022 s⁻¹; kon (human Hsp90α): 811 M⁻¹ s⁻¹
